Laboratory results published in patent publication US10420341B2, “Herbicidal phenylpyrimidines” (BASF SE, priority 2015, dated 2019).

Key:
ALOMY = test: greenhouse post-emergence herbicidal test; type: in vivo, Alopercurus myosuroides; conditions: post-emergence method, scale from 0 to 100
Procedure, shortened: (§1)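 Post-emergence; plants at 3–15 cm, treated with aqueous suspension/emulsion of compound. 10–25 °C or 20–35 °C per species, 2–4 wk. Score 0 (no damage) to 100 (aerial parts destroyed).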

ECHCG [1] = test: greenhouse pre-emergence herbicidal test; type: in vivo, Echinocloa crus-galli; conditions: pre-emergence method, application rate 500 g/ha, scale from 0 to 100
Procedure, shortened: (§2)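 Greenhouse plants receive the aqueous active ingredient straight after sowing, before emergence. Response is scored from 0 (no damage) to 100 (no emergence or complete kill of aerial parts) over a 2-4 week period.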

POLCO = test: greenhouse post-emergence herbicidal test; type: in vivo, Polygonum convolvulus; conditions: post-emergence method, scale from 0 to 100
Source text: (§3) The seeds of the test plants were sown separately for each species. For the post-emergence treatment, the test plants were first grown to a height of 3 to 15 cm, depending on the plant habit, and only then treated with the active ingredients which had been suspended or emulsified in water. For this purpose, the test plants were either sown directly and grown in the same containers, or they were first grown separately as seedlings and transplanted into the test containers a few days prior to treatment. Depending on the species, the plants were kept at 10-25° C. or 20-35° C., respectively. The test period extended over 2 to 4 weeks. During this time, the plants were tended, and their response to the individual treatments was evaluated. Evaluation was carried out using a scale from 0 to 100. 100 means no emergence of the plants, or complete destruction of at least the aerial moieties, and 0 means no damage, or normal course of growth. […] The plants used in the greenhouse experiments were of the following species: [table]

APESV = test: greenhouse pre-emergence herbicidal test; type: in vivo, Apera spica-venti; conditions: pre-emergence method, scale from 0 to 100
Procedure, shortened: as §2

ECHCG [2] = test: greenhouse post-emergence herbicidal test; type: in vivo, Echinocloa crus-galli; conditions: post-emergence method, application rate 500 g/ha, scale from 0 to 100
Procedure, shortened: as §1

AVEFA = test: greenhouse post-emergence herbicidal test; type: in vivo, Avena fatua; conditions: post-emergence method, application rate 500 g/ha, scale from 0 to 100
Procedure, shortened: as §1

ABUTH = test: greenhouse post-emergence herbicidal test; type: in vivo, Abutilon theophrasti; conditions: post-emergence method, scale from 0 to 100
Source text: as §3

AMARE = test: greenhouse post-emergence herbicidal test; type: in vivo, Amaranthus retroflexus; conditions: post-emergence method, application rate 500 g/ha, scale from 0 to 100
Source text: as §3

COC(=O)c1nc(OC)ncc1-c1ccccc1Cl [example 61]
herbicidal activity against ALOMY (ALOMY; application rate 500 g/ha): good (A good herbicidal activity is given at values of at least 70)
herbicidal activity against ECHCG (ECHCG [1]): very good (a very good herbicidal activity is given at values of at least 85)
herbicidal activity against POLCO (POLCO; application rate 500 g/ha): very good (a very good herbicidal activity is given at values of at least 85)
herbicidal activity against APESV (APESV; application rate 500 g/ha): very good (a very good herbicidal activity is given at values of at least 85)
herbicidal activity against ECHCG (ECHCG [2]): good (A good herbicidal activity is given at values of at least 70)

COC(=O)c1nc(C2CC2)ncc1-c1cccc(F)c1Cl [example 210]
herbicidal activity against ECHCG (ECHCG [1]): very good (a very good herbicidal activity is given at values of at least 85)
herbicidal activity against POLCO (POLCO; application rate 500 g/ha): very good (a very good herbicidal activity is given at values of at least 85)
herbicidal activity against APESV (APESV; application rate 500 g/ha): very good (a very good herbicidal activity is given at values of at least 85)
herbicidal activity against ECHCG (ECHCG [2]): very good (a very good herbicidal activity is given at values of at least 85)

CC(C)(C)SC(=O)c1nc(C2CC2)ncc1-c1ccccc1Cl [example 281]
herbicidal activity against ALOMY (ALOMY; application rate 500 g/ha): very good (a very good herbicidal activity is given at values of at least 85)
herbicidal activity against POLCO (POLCO; application rate 500 g/ha): very good (a very good herbicidal activity is given at values of at least 85)
herbicidal activity against APESV (APESV; application rate 500 g/ha): very good (a very good herbicidal activity is given at values of at least 85)

COC(=O)c1nc(C2CC2)ncc1-c1c(C)cccc1C [example 225]
herbicidal activity against ECHCG (ECHCG [1]): very good (a very good herbicidal activity is given at values of at least 85)
herbicidal activity against POLCO (POLCO; application rate 500 g/ha): very good (a very good herbicidal activity is given at values of at least 85)
herbicidal activity against APESV (APESV; application rate 500 g/ha): very good (a very good herbicidal activity is given at values of at least 85)
herbicidal activity against ECHCG (ECHCG [2]): good (A good herbicidal activity is given at values of at least 70)

Cc1ccc(-c2cnc(C3CC3)nc2C(=O)O)c(C)c1 [example 168]
herbicidal activity against ALOMY (ALOMY; application rate 500 g/ha): good (A good herbicidal activity is given at values of at least 70)
herbicidal activity against ECHCG (ECHCG [1]): very good (a very good herbicidal activity is given at values of at least 85)
herbicidal activity against POLCO (POLCO; application rate 500 g/ha): very good (a very good herbicidal activity is given at values of at least 85)
herbicidal activity against APESV (APESV; application rate 500 g/ha): very good (a very good herbicidal activity is given at values of at least 85)

CCOc1ncc(-c2ccccc2C)c(C(=O)O)n1 [example 67]
herbicidal activity against ECHCG (ECHCG [1]): good (A good herbicidal activity is given at values of at least 70)
herbicidal activity against POLCO (POLCO; application rate 500 g/ha): very good (a very good herbicidal activity is given at values of at least 85)
herbicidal activity against APESV (APESV; application rate 500 g/ha): very good (a very good herbicidal activity is given at values of at least 85)
herbicidal activity against ECHCG (ECHCG [2]): good (A good herbicidal activity is given at values of at least 70)

Cc1ccccc1-c1cnc(C(C)C)nc1C(=O)O [example 33]
herbicidal activity against ECHCG (ECHCG [1]): very good (a very good herbicidal activity is given at values of at least 85)
herbicidal activity against POLCO (POLCO; application rate 500 g/ha): good (A good herbicidal activity is given at values of at least 70)
herbicidal activity against APESV (APESV; application rate 500 g/ha): very good (a very good herbicidal activity is given at values of at least 85)
herbicidal activity against ECHCG (ECHCG [2]): good (A good herbicidal activity is given at values of at least 70)

COC(=O)c1nc(C2CC2)ncc1-c1ccccc1C(F)F [example 308]
herbicidal activity against ALOMY (ALOMY; application rate 500 g/ha): very good (a very good herbicidal activity is given at values of at least 85)
herbicidal activity against ECHCG (ECHCG [1]): very good (a very good herbicidal activity is given at values of at least 85)
herbicidal activity against POLCO (POLCO; application rate 500 g/ha): very good (a very good herbicidal activity is given at values of at least 85)
herbicidal activity against APESV (APESV; application rate 500 g/ha): very good (a very good herbicidal activity is given at values of at least 85)
herbicidal activity against AVEFA (AVEFA): very good (a very good herbicidal activity is given at values of at least 85)

CCCOc1ccc(C(F)(F)F)cc1-c1cnc(C2CC2)nc1C(=O)O [example 306]
herbicidal activity against ABUTH (ABUTH; application rate 1000 g/ha): very good (a very good herbicidal activity is given at values of at least 85)

O=C(O)c1nc(C2CC2)ncc1-c1c(F)cc(Cl)cc1Cl [example 148]
herbicidal activity against ALOMY (ALOMY; application rate 250 g/ha): very good (a very good herbicidal activity is given at values of at least 85)
herbicidal activity against POLCO (POLCO; application rate 250 g/ha): very good (a very good herbicidal activity is given at values of at least 85)
herbicidal activity against APESV (APESV; application rate 250 g/ha): very good (a very good herbicidal activity is given at values of at least 85)

COc1ncc(-c2ccccc2Cl)c(C(=O)O)n1 [example 51]
herbicidal activity against ECHCG (ECHCG [1]): very good (a very good herbicidal activity is given at values of at least 85)
herbicidal activity against POLCO (POLCO; application rate 500 g/ha): very good (a very good herbicidal activity is given at values of at least 85)
herbicidal activity against APESV (APESV; application rate 500 g/ha): very good (a very good herbicidal activity is given at values of at least 85)
herbicidal activity against AVEFA (AVEFA): good (A good herbicidal activity is given at values of at least 70)
herbicidal activity against ECHCG (ECHCG [2]): good (A good herbicidal activity is given at values of at least 70)

O=C(O)c1nc(C2CC2)ncc1-c1cc(Cl)ccc1Cl [example 143]
herbicidal activity against ECHCG (ECHCG [1]): very good (a very good herbicidal activity is given at values of at least 85)
herbicidal activity against POLCO (POLCO; application rate 500 g/ha): very good (a very good herbicidal activity is given at values of at least 85)
herbicidal activity against APESV (APESV; application rate 500 g/ha): very good (a very good herbicidal activity is given at values of at least 85)
herbicidal activity against ECHCG (ECHCG [2]): good (A good herbicidal activity is given at values of at least 70)

COC(=O)c1nc(C2CC2)ncc1-c1cc(Cl)ccc1Cl [example 204]
herbicidal activity against POLCO (POLCO; application rate 500 g/ha): very good (a very good herbicidal activity is given at values of at least 85)
herbicidal activity against APESV (APESV; application rate 500 g/ha): very good (a very good herbicidal activity is given at values of at least 85)
herbicidal activity against AMARE (AMARE): very good (a very good herbicidal activity is given at values of at least 85)

COc1ccc(Cl)c(-c2cnc(C3CC3)nc2C(=O)O)c1 [example 145]
herbicidal activity against ECHCG (ECHCG [1]): very good (a very good herbicidal activity is given at values of at least 85)
herbicidal activity against POLCO (POLCO; application rate 500 g/ha): very good (a very good herbicidal activity is given at values of at least 85)
herbicidal activity against APESV (APESV; application rate 500 g/ha): very good (a very good herbicidal activity is given at values of at least 85)
herbicidal activity against ECHCG (ECHCG [2]): very good (a very good herbicidal activity is given at values of at least 85)

O=C(O)c1nc(C2CC2)ncc1-c1ccccc1OC(F)F [example 181]
herbicidal activity against ECHCG (ECHCG [1]): very good (a very good herbicidal activity is given at values of at least 85)
herbicidal activity against POLCO (POLCO; application rate 500 g/ha): very good (a very good herbicidal activity is given at values of at least 85)
herbicidal activity against APESV (APESV; application rate 500 g/ha): very good (a very good herbicidal activity is given at values of at least 85)
herbicidal activity against ECHCG (ECHCG [2]): good (A good herbicidal activity is given at values of at least 70)

O=C(O)c1nc(C2CC2)ncc1-c1ccccc1C(F)F [example 309]
herbicidal activity against ALOMY (ALOMY; application rate 500 g/ha): very good (a very good herbicidal activity is given at values of at least 85)
herbicidal activity against ECHCG (ECHCG [1]): very good (a very good herbicidal activity is given at values of at least 85)
herbicidal activity against POLCO (POLCO; application rate 500 g/ha): very good (a very good herbicidal activity is given at values of at least 85)
herbicidal activity against APESV (APESV; application rate 500 g/ha): very good (a very good herbicidal activity is given at values of at least 85)
herbicidal activity against AVEFA (AVEFA): very good (a very good herbicidal activity is given at values of at least 85)

O=C(O)c1nc(C2CC2)ncc1-c1ccccc1SC(F)(F)F [example 310]
herbicidal activity against ABUTH (ABUTH; application rate 1000 g/ha): good (A good herbicidal activity is given at values of at least 70)

CCOc1ncc(-c2cc(C)ccc2C)c(C(=O)O)n1 [example 68]
herbicidal activity against ECHCG (ECHCG [1]): very good (a very good herbicidal activity is given at values of at least 85)
herbicidal activity against POLCO (POLCO; application rate 500 g/ha): very good (a very good herbicidal activity is given at values of at least 85)
herbicidal activity against APESV (APESV; application rate 500 g/ha): very good (a very good herbicidal activity is given at values of at least 85)
herbicidal activity against ECHCG (ECHCG [2]): good (A good herbicidal activity is given at values of at least 70)

COC(=O)c1nc(C2CCC2)ncc1-c1ccccc1Cl [example 277]
herbicidal activity against ABUTH (ABUTH; application rate 500 g/ha): very good (a very good herbicidal activity is given at values of at least 85)
herbicidal activity against APESV (APESV; application rate 500 g/ha): good (A good herbicidal activity is given at values of at least 70)
